Measurements from ChEMBL document CHEMBL1201862, “PubChem BioAssay data set” (2004).
Each block holds one molecule with its values, some of them ahead of it. The source made the active and inactive calls.

Key:
Beta-galactosidase = Beta-galactosidase (Escherichia coli, UniProt Q8VNN2); test: Dose response counterscreen for EBI2 assay utilizing the enzyme, b-galactosidase.; format: functional
Paired box protein Pax-8 = Paired box protein Pax-8 (Homo sapiens, UniProt Q06710); test: inhibitors of PAX8-driven TPO luciferase reporter, dose response, RMG-I cells, cherry-pick (AID 687027); format: functional, cell-based;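 also: luciferase reporter driven by Pax8 target thyroperoxidase promoter measured by SteadyGlo luminescence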
[1] = miR-122 activators in hepatoma reporter cells, dose response, cell-based, Huh7 psiCHECK-miR122, Renilla luciferase, cherry-picked (AID 651956); format: functional;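 also: huh7 hepatoma cells stably carrying a psiCHECK-2 miR-122 sensor plasmid; renilla luciferase signal reporting endogenous miR-122 activity after 48 h compound exposure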
[2] = HEK293T cytotoxicity, dose response, cytotoxicity control for miR-122 modulator project, cell-based, activator set, cherry-pick (AID 720690); format: functional;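 also: HEK293T human cells scored for general mammalian cytotoxicity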
[3] = IGROV1 ovarian cancer cell cytotoxicity, dose response, PAX8 inhibitor project, plate reader, dry powder samples (AID 743043); format: functional, cell-based; settings: IGROV-1
[4] = NIH:OVCAR-3 ovarian cancer cell cytotoxicity, dose response, PAX8 inhibitor project, plate reader, dry powder samples (AID 743044); format: functional, cell-based
[5] = cytotoxicity in OVCAR8 ovarian cancer cells, dose response, PAX8 project, cell-based, plate reader, dry powder samples (AID 743197); format: functional; settings: OVCAR-8
[6] = inhibitors of CMV-promoter luciferase reporter, dose response, counter-screen for Pax8 inhibitor project, cell-based, HEK293, luminescence, dry powder (AID 743020); format: functional
Fatty acid synthase [7] = molecular target: T1, Fatty acid synthase (Homo sapiens, UniProt P49327); test: FAS thioesterase domain inhibitors, dose response, biochemical, kinetic fluorescence intensity (AID 624326); format: functional;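 also: rate of fluorescence rise from hydrolysis of a fluorogenic O-methyl fluorescein ester substrate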
Albumin = Albumin (Bos taurus, UniProt P02769); test: Counterscreen for inhibitors of T-cell receptor (TCR)-CD3 interaction: Fluorescence-based biochemical high throughput dose response assay to identify inhibitors of T-cell receptor (TCR)-CD3 interaction using a TAMRA-labeled BSA probe.; format: functional
Fatty acid synthase [8] = molecular target: T1, Fatty acid synthase; test: FAS thioesterase domain inhibitors, dose response, biochemical, endpoint fluorescence intensity, uHTS hits (AID 624327); format: functional;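 also: fluorescence from hydrolysis of an O-methyl fluorescein acyl ester substrate by the enzyme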
Melanocortin receptor 4 = Melanocortin receptor 4 (Homo sapiens, UniProt P32245); format: functional, cell-based;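 also: Cell-based assay with luminescence read-out, confirmatory dose-response testing for agonist activity of biased ligands at MC4R; human U2OS cells with tagged receptor and beta-arrestin; potency of agonists that increase receptor coupling to beta-arrestin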
[9] = HEK293T cell cytotoxicity, dose response, cytotoxicity control for HIV Vif inhibitor project, cherry-picks (AID 652208); format: functional, cell-based
Caspase-8 = Caspase-8 (Homo sapiens, UniProt Q14790); test: caspase-8 inhibition counter-screen, dose response, selectivity assay for caspase-6 inhibitor project, biochemical, Z-IETD-R110 fluorescence, cherry-picked samples (AID 743294)
Protein Tat = Protein Tat (Human immunodeficiency virus type 1 group M subtype B (isolate HXB2)(HIV-1), UniProt P04608); format: functional;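 also: tat binding to TAR RNA read out by fluorescence polarization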
Caspase-7 = Caspase-7 (Homo sapiens, UniProt P55210); test: human caspase-7 inhibitors, dose response, selectivity assay for caspase-6 inhibitor project, biochemical, DEVD-R110 fluorescence, cherry-pick (AID 743295)
[10] = THP-1 cell cytotoxicity, dose response, cytotoxicity control for Vif-APOBEC3G degradation inhibitor project, THP-1 cells (AID 1117359); format: functional; settings: Human immunodeficiency virus 1, THP-1
Caspase-6 = Caspase-6 (Homo sapiens, UniProt P55212); test: human caspase-6 inhibitors, dose response, biochemical, VEID-R110 fluorescence, cherry-pick (AID 720632)
Sequence of Caspase-6 (P55212 24-179 limits assumed): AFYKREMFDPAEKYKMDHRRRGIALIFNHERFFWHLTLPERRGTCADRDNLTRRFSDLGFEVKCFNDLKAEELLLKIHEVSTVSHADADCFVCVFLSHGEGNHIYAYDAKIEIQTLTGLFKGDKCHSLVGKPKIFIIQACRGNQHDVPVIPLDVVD
Sequence of Caspase-6 (P55212 194-293 limits assumed): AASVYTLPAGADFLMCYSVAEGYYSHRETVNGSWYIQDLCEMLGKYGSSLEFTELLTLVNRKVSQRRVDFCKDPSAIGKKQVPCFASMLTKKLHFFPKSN

T1 sequence (P49327 whole entry, the tested form may be a part): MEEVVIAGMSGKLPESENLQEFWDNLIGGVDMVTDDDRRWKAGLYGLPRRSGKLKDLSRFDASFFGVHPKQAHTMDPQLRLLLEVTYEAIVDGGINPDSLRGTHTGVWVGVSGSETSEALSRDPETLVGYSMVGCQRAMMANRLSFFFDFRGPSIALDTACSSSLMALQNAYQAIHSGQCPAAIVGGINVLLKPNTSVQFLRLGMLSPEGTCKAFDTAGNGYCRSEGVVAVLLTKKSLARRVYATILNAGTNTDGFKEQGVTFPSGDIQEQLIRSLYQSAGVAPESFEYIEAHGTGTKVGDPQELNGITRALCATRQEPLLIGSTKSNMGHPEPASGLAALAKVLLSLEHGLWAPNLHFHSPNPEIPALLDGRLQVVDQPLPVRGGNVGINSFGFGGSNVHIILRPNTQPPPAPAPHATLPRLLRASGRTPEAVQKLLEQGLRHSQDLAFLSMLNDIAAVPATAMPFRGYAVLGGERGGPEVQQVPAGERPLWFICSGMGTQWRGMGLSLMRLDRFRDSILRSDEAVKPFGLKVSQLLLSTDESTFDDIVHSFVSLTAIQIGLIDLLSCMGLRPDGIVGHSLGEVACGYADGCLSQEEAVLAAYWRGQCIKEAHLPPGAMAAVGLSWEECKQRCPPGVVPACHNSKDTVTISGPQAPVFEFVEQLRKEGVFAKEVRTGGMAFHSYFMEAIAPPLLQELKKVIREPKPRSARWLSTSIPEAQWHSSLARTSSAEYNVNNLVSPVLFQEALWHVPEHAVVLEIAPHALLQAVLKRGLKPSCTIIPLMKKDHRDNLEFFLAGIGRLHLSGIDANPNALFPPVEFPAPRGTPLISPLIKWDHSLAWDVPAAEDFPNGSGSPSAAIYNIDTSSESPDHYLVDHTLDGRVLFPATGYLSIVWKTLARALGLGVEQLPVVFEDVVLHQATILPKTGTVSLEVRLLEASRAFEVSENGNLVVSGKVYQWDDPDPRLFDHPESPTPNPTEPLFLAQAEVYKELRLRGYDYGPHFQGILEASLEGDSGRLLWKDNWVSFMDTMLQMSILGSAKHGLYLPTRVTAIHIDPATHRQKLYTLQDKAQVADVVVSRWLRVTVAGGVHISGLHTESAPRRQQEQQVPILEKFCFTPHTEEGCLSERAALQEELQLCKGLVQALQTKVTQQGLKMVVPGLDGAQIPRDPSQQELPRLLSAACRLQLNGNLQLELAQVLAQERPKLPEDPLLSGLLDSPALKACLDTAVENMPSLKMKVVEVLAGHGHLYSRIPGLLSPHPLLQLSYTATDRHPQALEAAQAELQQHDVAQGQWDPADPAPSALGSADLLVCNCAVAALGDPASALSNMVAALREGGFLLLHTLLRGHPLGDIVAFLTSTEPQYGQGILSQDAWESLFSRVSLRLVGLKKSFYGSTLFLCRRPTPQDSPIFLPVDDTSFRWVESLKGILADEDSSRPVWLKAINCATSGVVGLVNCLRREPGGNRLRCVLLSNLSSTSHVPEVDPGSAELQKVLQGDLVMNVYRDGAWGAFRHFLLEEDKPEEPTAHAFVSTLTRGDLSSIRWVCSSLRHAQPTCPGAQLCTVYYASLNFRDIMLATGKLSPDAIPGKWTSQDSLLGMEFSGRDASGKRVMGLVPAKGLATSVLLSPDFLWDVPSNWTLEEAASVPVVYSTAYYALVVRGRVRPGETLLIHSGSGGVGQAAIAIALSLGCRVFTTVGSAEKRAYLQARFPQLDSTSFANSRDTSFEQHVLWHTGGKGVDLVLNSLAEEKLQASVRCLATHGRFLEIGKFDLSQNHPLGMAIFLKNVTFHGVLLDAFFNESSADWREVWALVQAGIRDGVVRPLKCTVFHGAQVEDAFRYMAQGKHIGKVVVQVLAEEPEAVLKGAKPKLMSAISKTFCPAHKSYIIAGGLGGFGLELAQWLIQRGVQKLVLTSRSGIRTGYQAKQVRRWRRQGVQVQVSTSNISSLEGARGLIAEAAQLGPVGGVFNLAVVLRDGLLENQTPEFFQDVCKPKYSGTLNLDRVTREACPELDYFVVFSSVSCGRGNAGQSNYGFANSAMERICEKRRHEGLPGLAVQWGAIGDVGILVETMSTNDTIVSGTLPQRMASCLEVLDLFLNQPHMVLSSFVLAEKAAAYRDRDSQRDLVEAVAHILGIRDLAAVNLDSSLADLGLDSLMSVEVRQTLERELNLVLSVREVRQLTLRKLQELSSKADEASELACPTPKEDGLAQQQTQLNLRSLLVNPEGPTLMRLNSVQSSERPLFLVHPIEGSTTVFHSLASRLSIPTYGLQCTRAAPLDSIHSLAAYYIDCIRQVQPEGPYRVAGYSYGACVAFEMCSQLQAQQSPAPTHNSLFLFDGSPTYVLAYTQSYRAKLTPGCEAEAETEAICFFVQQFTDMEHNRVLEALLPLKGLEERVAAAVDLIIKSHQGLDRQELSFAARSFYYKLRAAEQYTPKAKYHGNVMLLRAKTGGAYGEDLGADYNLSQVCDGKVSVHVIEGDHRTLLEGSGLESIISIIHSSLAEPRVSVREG
Sequence of Paired box protein Pax-8 (Q06710 whole entry): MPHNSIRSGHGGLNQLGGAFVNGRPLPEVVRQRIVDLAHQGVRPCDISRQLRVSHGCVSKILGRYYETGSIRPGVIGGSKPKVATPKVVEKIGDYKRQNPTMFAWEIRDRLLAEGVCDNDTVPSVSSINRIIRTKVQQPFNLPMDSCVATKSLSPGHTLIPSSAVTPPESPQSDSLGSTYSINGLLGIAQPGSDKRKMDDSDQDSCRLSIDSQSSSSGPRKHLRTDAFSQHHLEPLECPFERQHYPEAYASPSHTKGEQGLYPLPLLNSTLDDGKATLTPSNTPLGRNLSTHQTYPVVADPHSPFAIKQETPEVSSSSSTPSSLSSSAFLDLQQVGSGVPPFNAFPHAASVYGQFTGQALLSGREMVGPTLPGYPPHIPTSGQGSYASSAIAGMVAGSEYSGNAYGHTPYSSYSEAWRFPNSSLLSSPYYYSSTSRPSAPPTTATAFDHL
Sequence of Protein Tat (P04608 whole entry): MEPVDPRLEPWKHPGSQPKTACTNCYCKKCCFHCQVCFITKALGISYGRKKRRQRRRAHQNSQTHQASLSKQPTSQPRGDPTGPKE
Sequence of Caspase-8 (Q14790 217-374 limits assumed): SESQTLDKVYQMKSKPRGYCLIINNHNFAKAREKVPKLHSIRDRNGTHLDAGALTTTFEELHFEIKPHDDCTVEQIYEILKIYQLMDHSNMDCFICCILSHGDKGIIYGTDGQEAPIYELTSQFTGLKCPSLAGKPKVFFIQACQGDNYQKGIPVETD
Sequence of Caspase-8 (Q14790 385-479 limits assumed): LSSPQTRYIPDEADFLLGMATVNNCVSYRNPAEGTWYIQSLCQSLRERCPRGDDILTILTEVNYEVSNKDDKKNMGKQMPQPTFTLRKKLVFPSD
Sequence of Caspase-7 (P55210 24-198 limits assumed): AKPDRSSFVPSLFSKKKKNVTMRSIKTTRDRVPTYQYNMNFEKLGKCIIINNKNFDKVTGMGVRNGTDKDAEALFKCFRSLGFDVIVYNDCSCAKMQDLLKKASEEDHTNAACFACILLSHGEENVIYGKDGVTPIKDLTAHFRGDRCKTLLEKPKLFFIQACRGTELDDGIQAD
Sequence of Caspase-7 (P55210 207-303 limits assumed): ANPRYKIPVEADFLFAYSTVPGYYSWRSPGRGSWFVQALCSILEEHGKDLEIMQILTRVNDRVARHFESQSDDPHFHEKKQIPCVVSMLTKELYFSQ
Sequence of Albumin (P02769 whole entry, the tested form may be a part): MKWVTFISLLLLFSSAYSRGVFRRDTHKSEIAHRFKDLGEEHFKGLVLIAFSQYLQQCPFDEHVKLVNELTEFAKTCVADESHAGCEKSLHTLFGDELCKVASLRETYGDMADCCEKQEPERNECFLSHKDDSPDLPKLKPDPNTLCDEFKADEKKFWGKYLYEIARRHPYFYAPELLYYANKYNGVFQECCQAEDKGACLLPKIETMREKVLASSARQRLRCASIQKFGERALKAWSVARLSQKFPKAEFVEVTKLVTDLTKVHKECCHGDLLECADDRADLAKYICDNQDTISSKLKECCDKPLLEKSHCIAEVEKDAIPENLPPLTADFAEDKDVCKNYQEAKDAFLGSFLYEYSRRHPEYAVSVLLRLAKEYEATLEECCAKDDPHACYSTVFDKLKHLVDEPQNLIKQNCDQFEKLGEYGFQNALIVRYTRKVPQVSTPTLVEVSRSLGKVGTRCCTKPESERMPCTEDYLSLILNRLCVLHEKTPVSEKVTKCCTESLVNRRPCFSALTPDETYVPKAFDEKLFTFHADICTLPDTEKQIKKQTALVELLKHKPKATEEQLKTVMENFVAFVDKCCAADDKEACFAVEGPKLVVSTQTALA
Sequence of Melanocortin receptor 4 (P32245 whole entry): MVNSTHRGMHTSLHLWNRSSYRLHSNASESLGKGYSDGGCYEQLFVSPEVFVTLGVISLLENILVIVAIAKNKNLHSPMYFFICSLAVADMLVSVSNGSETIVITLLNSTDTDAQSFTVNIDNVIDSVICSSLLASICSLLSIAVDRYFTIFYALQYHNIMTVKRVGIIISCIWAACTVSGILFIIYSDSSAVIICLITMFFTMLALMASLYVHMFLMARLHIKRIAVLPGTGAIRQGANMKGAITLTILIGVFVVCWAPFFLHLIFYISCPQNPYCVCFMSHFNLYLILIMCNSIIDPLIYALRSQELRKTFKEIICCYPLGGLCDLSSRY

Compound: CNC[C@@H]1Oc2cc(C#CC3CCCCC3)ccc2S(=O)(=O)N([C@@H](C)CO)C[C@@H]1C
AC50 (Paired box protein Pax-8): 25.3 µM (active)
AC50 [1]: 1.39 µM (active)
AC50 [2]: 19.4 µM (active)

Compound: C[C@H]1CCCCO[C@H](CN(C)C(=O)c2ccccc2)[C@@H](C)CN([C@@H](C)CO)C(=O)c2cc(NC(=O)Nc3ccc(C(F)(F)F)cc3)ccc2O1
AC50 [3]: 37.6 µM (active)
AC50 (Paired box protein Pax-8): 9.48 µM (active)
AC50 [4]: 29.5 µM (active)
AC50 [5]: 47.8 µM (active)
AC50 [6]: 30.1 µM (active)

Compound: NC(CCc1ccccc1)c1csc(Nc2ccc(C(=O)c3ccccc3)cc2)n1 (centres undefined)
EC50 (Melanocortin receptor 4): > 89.2 µM (inactive)
AC50 [9]: 27.7 µM (active)

More lines, main results first:

IC50 (Beta-galactosidase): > 80 µM (inactive)
Compound: COc1cccc(C(=O)N2CCN(C(=O)COc3ccc4ccccc4c3)CC2)c1

IC50 (Fatty acid synthase [7]): 11.7 µM (active)
IC50 (Albumin): > 94.1 µM (inactive)
IC50 (Fatty acid synthase [8]): 15.5 µM (active)
Compound: COc1cc([N+](=O)[O-])cc(/C=N/NC(=O)c2cc(C)nc3ccccc23)c1O

AC50 (Caspase-8): 28.1 µM (active)
IC50 (Protein Tat): > 100 µM (active)
AC50 (Caspase-7): > 70 µM (inactive)
AC50 (Caspase-6): 0.433 µM (active)
Compound: O=C(c1cccc(-n2cccc2)c1)N1CCN(S(=O)(=O)c2ccccc2)CC1
CC50 [10]: > 40 µM (active)
